Measured values: ChEMBL document CHEMBL6103587, “Anti-tumor effects of artemisinin-based oligomers: From monomer to trimer as a novel drug-enhancing strategy” (Eur J Med Chem, 2025)
Active and inactive are the calls of the source. The calls are words filed in the database; no cut-off is given here.

What was measured:
MCF7 [1] = test: Antitumor activity against human MCF7 cells assessed as reduction in cell viability incubated for 72 hrs by CCK8 assay; type: functional, cell-based; conditions: MCF7, 72 h
MCF7 [2] = test: Antitumor activity against human MCF7 cells assessed as decrease in number of viable cells at 0.05 to 0.2 uM incubated for 24 hrs by Hoechst 33342 staining based confocal microscopic analysis; type: functional, cell-based; conditions: dose 0.05-0.2 µM
MCF7 [3] = test: Antitumor activity against human MCF7 cells assessed as decrease in nuclear volume at 0.05 to 0.2 uM incubated for 24 hrs by Hoechst 33342 staining based confocal microscopic analysis; type: functional, cell-based; conditions: dose 0.05-0.2 µM
MCF7 [4] = test: Antitumor activity against human MCF7 cells assessed as […] at 0.05 to 0.2 uM incubated for 24 hrs by Hoechst 33342 staining based confocal microscopic analysis; type: functional, cell-based; conditions: dose 0.05-0.2 µM
MCF7 [5] = test: Inhibition of colony formation in human MCF7 cells assessed as reduction in clone formation rate at 0.05 to 0.2 uM measured after 14 days by giemsa staining based dissection microscopic analysis; type: functional, cell-based; conditions: dose 0.05-0.2 µM, time 14.0 day
MCF7 [6] = test: Inhibition of colony formation in human MCF7 cells assessed as reduction in number of colonies measured after 14 days by giemsa staining based dissection microscopic analysis; type: functional, cell-based; conditions: dose 0.05-0.2 µM, time 14.0 day
MCF7 [7] = test: Induction of apoptosis in human MCF7 cells assessed as increase in death ratio at 0.05 to 0.2 uM by Annexin V-FITC/PI staining based flow cytometric analysis; type: functional, cell-based; conditions: dose 0.05-0.2 µM
Mitochondrial membrane [8] = test: Induction of mitochondrial membrane potential loss in human MCF7 cells assessed as reduction in JC-1 aggregate formation at 0.05 to 0.2 uM incubated for 48 hrs by JC-1 staining based confocal microscopic analysis; type: cell membranes; conditions: dose 0.05-0.2 µM
Mitochondrial membrane [9] = test: Induction of mitochondrial membrane potential loss in human MCF7 cells assessed as increase in JC-1 monomer level at 0.05 to 0.2 uM incubated for 48 hrs by JC-1 staining based confocal microscopic analysis; type: cell membranes; conditions: dose 0.05-0.2 µM
MCF7 [10] = test: Induction of apoptosis in human MCF7 cells assessed as increase in Bax level at 0.05 to 0.2 uM incubated for 48 hrs by Western blot analysis; type: functional, cell-based; conditions: dose 0.05-0.2 µM
MCF7 [11] = test: Induction of apoptosis in human MCF7 cells assessed as increase in caspase 3 level at 0.05 to 0.2 uM incubated for 48 hrs by Western blot analysis; type: functional, cell-based; conditions: dose 0.05-0.2 µM
MCF7 [12] = test: Induction of ferroptosis in human MCF7 cells assessed as reduction in GPX4 expression at 0.05 to 0.2 uM incubated for 48 hrs by Western blot analysis; type: functional, cell-based; conditions: dose 0.05-0.2 µM
MCF7 [13] = test: Induction of apoptosis in human MCF7 cells assessed as viable cells at 0.05 uM by Annexin V-FITC/PI staining based flow cytometric analysis (reference value: 92.01 %); type: functional; conditions: read-out: Activity
MCF7 [14] = test: Induction of apoptosis in human MCF7 cells assessed as early apoptotic cells at 0.05 uM by Annexin V-FITC/PI staining based flow cytometric analysis (reference value: 5.75 %); type: functional
MCF7 [15] = test: Induction of apoptosis in human MCF7 cells assessed as late apoptotic cells at 0.05 uM by Annexin V-FITC/PI staining based flow cytometric analysis (reference value: 1.97 %); type: functional
MCF7 [16] = test: Induction of apoptosis in human MCF7 cells assessed as necrotic cells at 0.05 uM by Annexin V-FITC/PI staining based flow cytometric analysis (reference value: 0.27 %); type: functional
MCF7 [17] = test: Induction of apoptosis in human MCF7 cells assessed as viable cells at 0.1 uM by Annexin V-FITC/PI staining based flow cytometric analysis (reference value: 92.01 %); type: functional; conditions: read-out: Activity
MCF7 [18] = test: Induction of apoptosis in human MCF7 cells assessed as early apoptotic cells at 0.1 uM by Annexin V-FITC/PI staining based flow cytometric analysis (reference value: 5.75 %); type: functional
MCF7 [19] = test: Induction of apoptosis in human MCF7 cells assessed as late apoptotic cells at 0.1 uM by Annexin V-FITC/PI staining based flow cytometric analysis (reference value: 1.97 %); type: functional
MCF7 [20] = test: Induction of apoptosis in human MCF7 cells assessed as necrotic cells at 0.1 uM by Annexin V-FITC/PI staining based flow cytometric analysis (reference value: 0.27 %); type: functional
MCF7 [21] = test: Induction of apoptosis in human MCF7 cells assessed as viable cells at 0.2 uM by Annexin V-FITC/PI staining based flow cytometric analysis (reference value: 92.01 %); type: functional; conditions: read-out: Activity
MCF7 [22] = test: Induction of apoptosis in human MCF7 cells assessed as early apoptotic cells at 0.2 uM by Annexin V-FITC/PI staining based flow cytometric analysis (reference value: 5.75 %); type: functional
MCF7 [23] = test: Induction of apoptosis in human MCF7 cells assessed as late apoptotic cells at 0.2 uM by Annexin V-FITC/PI staining based flow cytometric analysis (reference value: 1.97 %); type: functional
MCF7 [24] = test: Induction of apoptosis in human MCF7 cells assessed as necrotic cells at 0.2 uM by Annexin V-FITC/PI staining based flow cytometric analysis (reference value: 0.27 %); type: functional

In the case of `C[C@H]1[C@@H](OCCN)O[C@@H]2O[C@@]3(C)CC[C@H]4[C@H](C)CC[C@@H]1[C@@]24OO3`, the IC50 (MCF7 [1]) is reported as > 10 µM.

`C[C@H]1[C@@H](OCCNCCO[C@H]2O[C@@H]3O[C@@]4(C)CC[C@H]5[C@H](C)CC[C@@H]([C@H]2C)[C@@]35OO4)O[C@@H]2O[C@@]3(C)CC[C@H]4[C@H](C)CC[C@@H]1[C@@]24OO3` was tested, and the IC50 (MCF7 [1]) was 3.14 µM.

With `C[C@H]1[C@@H](OCCN(CCO[C@H]2O[C@@H]3O[C@@]4(C)CC[C@H]5[C@H](C)CC[C@@H]([C@H]2C)[C@@]35OO4)CCO[C@H]2O[C@@H]3O[C@@]4(C)CC[C@H]5[C@H](C)CC[C@@H]([C@H]2C)[C@@]35OO4)O[C@@H]2O[C@@]3(C)CC[C@H]4[C@H](C)CC[C@@H]1[C@@]24OO3` the IC50 (MCF7 [1]) was 0.09 µM, the Activity (MCF7 [2]) was “Active” and the Activity (MCF7 [3]) was “Active”. For the same molecule, the Activity (MCF7 [4]) was “Active”, the inhibition (MCF7 [5]) was “Active” and the inhibition (MCF7 [6]) was “Dose-dependent-effect”. For the same molecule, the Activity (MCF7 [7]) was “Active”, the Activity (Mitochondrial membrane [8]) was “Active; Partial Loss Of Membrane Potential Observed” and the Activity (Mitochondrial membrane [9]) was “Active; Partial Loss Of Membrane Potential Observed”. The Activity (MCF7 [10]) was “Active”, the Activity (MCF7 [11]) was “Active” and the Activity (MCF7 [12]) was “Active”. For the same molecule, the viability at 0.05 µM (MCF7 [13]) was 76.5%, the Activity (MCF7 [14]) was 13.23% and the Activity (MCF7 [15]) was 9.54%. For the same molecule, the Activity (MCF7 [16]) was 0.74%, the viability at 0.1 µM (MCF7 [17]) was 74.4% and the Activity (MCF7 [18]) was 14.22%. It also gave an Activity (MCF7 [19]) of 10.27%, an Activity (MCF7 [20]) of 1.14% and a viability at 0.2 µM (MCF7 [21]) of 62.5%. For the same molecule, the Activity (MCF7 [22]) was 16.86%, the Activity (MCF7 [23]) was 20.21% and the Activity (MCF7 [24]) was 0.48%.

`C[C@H]1[C@@H](O)O[C@@H]2O[C@@]3(C)CC[C@H]4[C@H](C)CC[C@@H]1[C@@]24OO3` [ARTENIMOL] was tested, and the IC50 (MCF7 [1]) was > 10 µM.

`Nc1ccn([C@@H]2O[C@H](CO)[C@@H](O)C2(F)F)c(=O)n1` [GEMCITABINE] gave an IC50 (MCF7 [1]) of 4.33 µM.
